Measurements reported in publication PMC11509018, “Evaluation of the Role of Tanshinone I in an In Vitro System of Charcot-Marie-Tooth Disease Type 2N” (International Journal of Molecular Sciences, 2024).

Target: T1, AlaRS R326W binding to GST-Nrp1 b1 (Homo sapiens, UniProt P49588, R326W)
T1 construct: made in house; host or cells: E. coli BL21 (DE3), pET-21a for AlaRS
T1 sequence (P49588 1-968 R326W): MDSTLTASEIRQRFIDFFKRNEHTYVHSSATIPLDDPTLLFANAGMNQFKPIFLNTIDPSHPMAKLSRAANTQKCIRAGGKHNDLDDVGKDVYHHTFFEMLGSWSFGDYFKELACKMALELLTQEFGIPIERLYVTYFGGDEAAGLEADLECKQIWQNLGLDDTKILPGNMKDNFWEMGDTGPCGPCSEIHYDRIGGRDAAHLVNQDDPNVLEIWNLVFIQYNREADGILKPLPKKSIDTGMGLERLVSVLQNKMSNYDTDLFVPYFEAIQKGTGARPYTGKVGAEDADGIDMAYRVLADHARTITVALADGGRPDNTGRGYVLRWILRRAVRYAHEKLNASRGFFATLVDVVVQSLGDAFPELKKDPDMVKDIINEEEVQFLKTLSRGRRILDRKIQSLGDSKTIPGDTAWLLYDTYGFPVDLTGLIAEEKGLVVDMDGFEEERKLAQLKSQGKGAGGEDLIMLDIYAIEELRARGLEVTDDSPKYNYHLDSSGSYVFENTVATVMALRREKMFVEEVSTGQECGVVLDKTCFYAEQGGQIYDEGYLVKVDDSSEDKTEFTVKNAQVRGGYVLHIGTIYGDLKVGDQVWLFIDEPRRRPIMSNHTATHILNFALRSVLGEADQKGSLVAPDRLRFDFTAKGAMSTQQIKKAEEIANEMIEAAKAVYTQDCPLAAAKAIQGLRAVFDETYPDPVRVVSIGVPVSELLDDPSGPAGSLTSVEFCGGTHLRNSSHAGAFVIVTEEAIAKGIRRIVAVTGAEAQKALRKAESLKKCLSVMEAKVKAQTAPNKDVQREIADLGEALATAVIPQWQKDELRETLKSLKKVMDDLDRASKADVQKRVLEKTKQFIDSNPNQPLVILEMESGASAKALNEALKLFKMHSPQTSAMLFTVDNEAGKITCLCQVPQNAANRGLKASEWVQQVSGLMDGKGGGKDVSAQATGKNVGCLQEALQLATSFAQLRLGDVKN
Assay: GST pull down assay
Conditions: 20 µM Tanshinone I, ImageJ, average of three repeats

## Cc1coc2c1C(=O)C(=O)c1c-2ccc2c(C)cccc12 [Tanshinone I]
  Mean density band (R326W), relative quantification of AlaRS mutant pulled down: 0.84
